{
  "source": "patent US20120214843A1",
  "about": "“Combination Treatment of Hydroxpyridonate Actinide/Lanthanide Decorporation Agents” (priority 2009, published 2012)",
  "key": {"[1]": {"assay": "In vivo actinide chelation and removal compared with CaNa3-DTPA", "design": "species or system mice", "excerpt": "(§1) In vivo Efficacy. […] For example, the efficiency of 3,4,3-LI-1,2-HOPO for clearing circulating Pu from mouse tissues ranges from 100 times (skeleton) to 240 times (soft tissues) that of CaNa3-DTPA in five different protocols. In addition, the optimal activity dose of 3,4,3-LI-1,2-HOPO for removing newly deposited Pu from mice is 2.5% of the dose of CaNa3-DTPA used clinically. The tetradentate 5-LIO-Me-3,2-HOPO has potential therapeutic value for Pu, U, Am and Np, and its efficiency for clearing circulating Pu from mouse tissues ranges from 5 times (skeleton) to 15 times (liver) that of CaNa3-DTPA.\n(§2) Oral Activity. Both compounds are orally active actinide chelators: when administered orally to mice or beagles after a Pu injection, 3,4,3-LI-1,2-HOPO and 5-LIO-Me-3,2-HOPO can remove up to 80% and 60%, respectively, of the injected Pu."}, "[2]": {"assay": "Pharmacokinetic studies using 14C-labeled ligands", "assay_type": "in vivo"}, "[3]": {"assay": "Actinide decorporation in mice after iv 241Am(III) injection, single or combined HOPO ligands", "assay_type": "in vivo, Swiss-Weber mice", "conditions": "ligand injected ip at 24 h", "procedure": "(§3) Ligand Combination. […] Tetradentate 5-LIO(Me-3,2-HOPO), HOPO (2), is structurally suitable for chelating Np(V) and U(VI). Treatment is likely to be delayed in human contamination with dispersed radionuclides. Those conditions were approached, using mice, by ligand injection ip at 24 h or oral administration at 1 or 24 h after an iv actinide injection. Dosages of (1) and (2) were, respectively, 30 and 100 μmolkg^−1 ip and 100 and 200 μmolkg^−1 oral. Because mixtures of radionuclides may be released, (1) and (2) were combined to take advantage of their differing efficacies for the actinides. Dosages of combined (1) and (2) were, respectively, 30 plus […] injected ip and […] oral. Actinides in all mouse tissues and excreta were determined using published methods.\n(§4) Tetradentate 5-LIO(Me-3,2-HOPO), HOPO (2), is structurally suitable for chelating Np(V) and U(VI). Treatment is likely to be delayed in human contamination with dispersed radionuclides. Those conditions were approached, using mice, by ligand injection ip at 24 h or oral administration at 1 or 24 h after an iv actinide injection. Dosages of (1) and (2) were, respectively, 30 and 100 μmolkg-1 ip and 100 and 200 μmolkg-1 oral. […] Actinides in all mouse tissues and excreta were determined using published methods. […]"}, "[4]": {"assay": "Clearing Pu from mouse tissues relative to CaNa3-DTPA", "assay_type": "in vivo", "excerpt": "as §1"}, "[5]": {"assay": "Oral removal of injected Pu", "assay_type": "in vivo", "conditions": "administered orally to mice or beagles after a Pu injection", "excerpt": "as §2"}, "[6]": {"assay": "Actinide decorporation in mice after iv 238Pu(IV) injection, single or combined HOPO ligands", "assay_type": "in vivo, Swiss-Weber mice", "conditions": "ligand injected ip at 24 h", "procedure": "as §3, §4"}, "[7]": {"assay": "Actinide decorporation in mice, all actinides and protocols, comparison of treatments", "design": "species or system Swiss-Weber mice", "conditions": "mouse", "procedure": "as §3, §4"}, "[8]": {"assay": "Actinide decorporation in mice after iv 233U(VI) injection, single or combined HOPO ligands", "assay_type": "in vivo, Swiss-Weber mice", "procedure": "as §3\n(§5) Tetradentate 5-LIO(Me-3,2-HOPO), HOPO (2), is structurally suitable for chelating Np(V) and U(VI). Treatment is likely to be delayed in human contamination with dispersed radionuclides. Those conditions were approached, using mice, by ligand injection ip at 24 h or oral administration at 1 or 24 h after an iv actinide injection. Dosages of (1) and (2) were, respectively, 30 and 100 μmolkg-1 ip and 100 and 200 μmolkg-1 oral. Because mixtures of radionuclides may be released, (1) and (2) were combined to take advantage of their differing efficacies for the actinides. Dosages of combined (1) and (2) were, respectively, 30 plus 100 μmolkg-1 injected ip and 100 and 200 μmolkg-1 oral. Actinides in all mouse tissues and excreta were determined using published methods.\n(§6) Objective: to assay the efficacy of the two ligands at promoting radionuclide excretion with prompt or delayed administration, as single or combined treatments, and to identify target organs and excretion pathways. The test system used Swiss-Weber mice (˜35 g). Actinide loading involves intravenous injection of An-citrate complex at t0. Samples of later taken of the whole skeleton, liver, kidneys, bulk soft tissues, urine, and feces (Σ=100%). (See Table 1.)"}, "[9]": {"assay": "Actinide decorporation in mice after iv 237Np(V) injection, single or combined HOPO ligands", "assay_type": "in vivo, Swiss-Weber mice", "procedure": "as §3, §5, §6"}},
  "data": [
    {"smiles": "O=C(NCCCN(CCCCN(CCCNC(=O)c1cccc(=O)n1O)C(=O)c1cccc(=O)n1O)C(=O)c1cccc(=O)n1O)c1cccc(=O)n1O", "note": "[3,4,3-LI(1,2-HOPO)]", "values": [
      {"measurement": "removing newly deposited Pu, Np, Am and U from mice, compared with CaNa3-DTPA", "setting": "[1]", "value": "significantly more effective"},
      {"measurement": "Pu, Np, Th, Am and Cf chelation in vivo", "setting": "[1]; mouse, in vivo", "value": "highly effective"},
      {"measurement": "stability to metabolic degradation", "setting": "[2]", "value": "stable to metabolic degradation"},
      {"measurement": "reduction of liver and skeleton actinide, Am(III)", "setting": "[3]", "value": "appreciable and significant reductions"},
      {"measurement": "optimal activity dose for removing newly deposited Pu from mice", "setting": "[4]; mice", "value": "2.5 % of the dose of CaNa3-DTPA used clinically"},
      {"measurement": "efficiency for clearing circulating Pu from mouse tissues, skeleton", "setting": "[4]", "value": "100 times that of CaNa3-DTPA"},
      {"measurement": "efficiency for clearing circulating Pu from mouse tissues, soft tissues", "setting": "[4]; soft tissues, five different protocols", "value": "240 times that of CaNa3-DTPA"},
      {"measurement": "injected Pu removed", "setting": "[5]", "value": "up to 80%"},
      {"measurement": "reduction of liver and skeleton actinide, Pu(IV)", "setting": "[6]", "value": "appreciable and significant reductions"},
      {"measurement": "in vivo chelation of Pu(IV) and Am(III)", "setting": "[7]", "value": "highly effective"}
    ]},
    {"smiles": "Cn1ccc(C(=O)NCCOCCNC(=O)c2ccn(C)c(=O)c2O)c(O)c1=O", "note": "[5-LIO(Me-3,2-HOPO)]", "values": [
      {"measurement": "removing newly deposited Pu, Np, Am and U from mice, compared with CaNa3-DTPA", "setting": "[1]", "value": "significantly more effective"},
      {"measurement": "stability to metabolic degradation", "setting": "[2]", "value": "stable to metabolic degradation"},
      {"measurement": "U(VI) excretion", "setting": "[8]; ligand given orally at 1 h", "value": "about 115 % control"},
      {"measurement": "kidney U(VI)", "setting": "[8]; ligand given orally at 1 h", "value": 50, "unit": "% control"},
      {"measurement": "U(VI) excretion", "setting": "[8]; ligand injected ip at 24 h", "value": "about 3 times control"},
      {"measurement": "kidney U(VI)", "setting": "[8]; ligand injected ip at 24 h", "value": 45, "unit": "% control"},
      {"measurement": "kidney U(VI)", "setting": "[8]; oral treatment at 24 h", "value": 70, "unit": "% control"},
      {"measurement": "Np(V) excretion", "setting": "[9]; ligand given orally at 1 h", "value": "about 115 % control"},
      {"measurement": "liver Np(V)", "setting": "[9]; ligand given orally at 1 h", "value": 25, "unit": "% control"},
      {"measurement": "Np(V) excretion", "setting": "[9]; ligand injected ip at 24 h", "value": "about 3 times control"},
      {"measurement": "liver Np(V)", "setting": "[9]; ligand injected ip at 24 h", "value": 30, "unit": "% control"},
      {"measurement": "liver Np(V)", "setting": "[9]; oral treatment at 24 h", "value": 50, "unit": "% control"},
      {"measurement": "efficiency for clearing circulating Pu from mouse tissues, liver", "setting": "[4]; liver", "value": "15 times that of CaNa3-DTPA"},
      {"measurement": "efficiency for clearing circulating Pu from mouse tissues, skeleton", "setting": "[4]", "value": "5 times that of CaNa3-DTPA"},
      {"measurement": "injected Pu removed", "setting": "[5]", "value": "≤ 60", "unit": "%"}
    ]}
  ]
}
